In data set [1] the target is T1, Cholinesterase (Homo sapiens, UniProt P06276). Description: Inhibition of human serum BChE using butyrylthiocholine iodide as substrate preincubated for 30 mins followed by substrate addition and measured after 30 mins by DTNB based Ellman's method.
The target of data set [2] is T2, Beta-secretase 1 (Homo sapiens, UniProt P56817). Put plainly: Inhibition of human BACE-1 measured after 2 hrs by FRET assay.
Data set [3] has as its target T3, Acetylcholinesterase (Homo sapiens, UniProt P22303). Put plainly: Inhibition of human erythrocyte AChE using acetylthiocholine iodide as substrate preincubated for 30 mins followed by substrate addition and measured after 30 mins by DTNB based Ellman's method. For orientation: In Ellman's method for cholinesterases, released thiocholine reacts with DTNB.
Data set [4] can be described thus: Antioxidant activity assessed as DPPH radical scavenging activity incubated for 30 mins in dark by UV/visible spectrophotometric analysis. The class given is functional. In general terms: The DPPH test is a chemical assay of radical scavenging.
Another data set in a line: in vitro. As to conditions: PAMPA. For orientation: PAMPA measures passive passage across an artificial lipid membrane.
Data set [5] has as its target Cholinesterase (Equus caballus) (UniProt P81908). Put plainly: Inhibition of horse serum BChE at 100 uM preincubated for 10 mins followed by substrate addition and measured after 15 mins by Ellman's method relative to control. As to conditions: time 25.0 min.
The target of data set [6] is Amyloid-beta precursor protein (Homo sapiens) (UniProt P05067). Put plainly: Inhibition of self induced amyloid beta (1 to 42 residues) (unknown origin) aggregation at 10 uM by thioflavin T based fluorescence analysis relative to control.
Amyloid-beta precursor protein (Homo sapiens), sequence (P05067 whole entry, the tested form may be a part): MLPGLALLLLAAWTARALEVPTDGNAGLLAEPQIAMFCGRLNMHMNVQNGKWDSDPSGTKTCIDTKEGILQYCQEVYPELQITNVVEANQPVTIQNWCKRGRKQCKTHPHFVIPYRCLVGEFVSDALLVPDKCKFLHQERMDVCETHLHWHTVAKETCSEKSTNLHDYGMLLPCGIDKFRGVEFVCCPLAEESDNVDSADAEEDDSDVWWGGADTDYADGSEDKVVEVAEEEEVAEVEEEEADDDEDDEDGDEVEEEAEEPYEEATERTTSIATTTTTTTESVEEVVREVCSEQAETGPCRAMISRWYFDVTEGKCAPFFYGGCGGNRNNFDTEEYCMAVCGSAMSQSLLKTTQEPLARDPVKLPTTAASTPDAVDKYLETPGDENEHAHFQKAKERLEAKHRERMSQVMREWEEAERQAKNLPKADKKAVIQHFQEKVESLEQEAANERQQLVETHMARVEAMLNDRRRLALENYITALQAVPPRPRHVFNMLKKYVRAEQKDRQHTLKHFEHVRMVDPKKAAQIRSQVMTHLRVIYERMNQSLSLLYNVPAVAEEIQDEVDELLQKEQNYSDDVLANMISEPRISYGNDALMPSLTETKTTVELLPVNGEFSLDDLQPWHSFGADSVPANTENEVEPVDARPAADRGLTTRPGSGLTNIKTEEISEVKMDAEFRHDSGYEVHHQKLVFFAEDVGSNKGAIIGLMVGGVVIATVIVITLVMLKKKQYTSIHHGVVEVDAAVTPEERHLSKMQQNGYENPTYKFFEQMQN
The next data set concerns PC-12. Description: Neuroprotective activity against amyloid beta (1 to 42 residues) induced cell damage in rat PC12 cells at 100 uM by MTT assay relative to control. The class given is functional.
In data set [7] the target is Amyloid-beta precursor protein (Homo sapiens) (UniProt P05067). Description: Inhibition of amyloid beta (1 to 42 residues) (unknown origin) aggregation assessed as reduction in fibrils measured after 3 days by AFM analysis. As to conditions: time 3.0 day.
For data set [8] the target is unchanged. Description: Inhibition of amyloid beta (1 to 42 residues) (unknown origin) aggregation assessed as reduction in massive oligomers measured after 3 days by AFM analysis. As to conditions: time 3.0 day.
The target in data set [9] is T3, Acetylcholinesterase. Put plainly: Inhibition of AChE (unknown origin).
In data set [10] the target is T2, Beta-secretase 1. Put plainly: Inhibition of human BACE-1 by FRET assay.
Data set [11] deals with T2, Beta-secretase 1. Description: Inhibition of human BACE-1.
Data set [12] deals with T3, Acetylcholinesterase. Put plainly: Inhibition of human AChE.
Data set [13] in a line: Drug concentration in male Wistar rat brain homogenate at 10 mg/kg, po measured after 4 days. The format is ADME, organism-based. Conditions: time 4 day, read-out: Ct.
Data set [14] has as its target T1, Cholinesterase. Put plainly: Inhibition of human BChE.
The nature of data set [15]: Drug concentration in male Wistar rat brain homogenate at 20 mg/kg, po measured after 4 days. The format is ADME, organism-based. Conditions: time 4 day, read-out: Ct.
Data set [16] has as its target T1, Cholinesterase. Description: Inhibition of BChE (unknown origin) at 10 uM relative to control.
For data set [17], the target named is T3, Acetylcholinesterase. Description: Inhibition of AChE (unknown origin) at 10 uM relative to control.
Data set [18] can be described thus: Cytotoxicity against human SH-SY5Y cells by MTT assay. The class given is toxicity, cell-based.
For data set [19], the target named is T2, Beta-secretase 1. Put plainly: Inhibition of BACE-1 in human SH-SY5Y cells transfected with human APP695 measured after 24 hrs by ELISA. The format is cell-based.
Data set [20] deals with T2, Beta-secretase 1. Description: Inhibition of C-terminal 10-His tagged recombinant human BACE-1 using Mca-Ser-Glu-Val-Asn-Leu-Asp-Ala-Glu-Phe-Arg-Lys(Dnp)-Arg-Arg-NH2 as substrate pretreated for 10 mins followed by substrate addition and measured every 5 mins for 120 mins.

Structures are written as SMILES. Active and inactive are the calls of the source. No cut-off for these calls is given here.

T2 sequence (P56817 whole entry): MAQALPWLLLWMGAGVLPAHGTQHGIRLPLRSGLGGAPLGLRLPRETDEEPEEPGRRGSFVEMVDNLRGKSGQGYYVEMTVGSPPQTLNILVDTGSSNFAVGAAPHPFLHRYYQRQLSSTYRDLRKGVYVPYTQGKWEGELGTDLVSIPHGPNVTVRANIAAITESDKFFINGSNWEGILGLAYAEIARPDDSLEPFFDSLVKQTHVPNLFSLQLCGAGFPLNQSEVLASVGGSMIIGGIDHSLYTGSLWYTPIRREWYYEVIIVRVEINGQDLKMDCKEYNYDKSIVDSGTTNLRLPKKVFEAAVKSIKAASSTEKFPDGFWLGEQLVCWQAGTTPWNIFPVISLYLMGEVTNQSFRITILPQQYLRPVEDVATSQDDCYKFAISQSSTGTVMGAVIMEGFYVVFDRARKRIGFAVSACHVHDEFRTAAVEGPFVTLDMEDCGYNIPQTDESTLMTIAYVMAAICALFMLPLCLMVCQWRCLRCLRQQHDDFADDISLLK
T3 sequence (P22303 whole entry): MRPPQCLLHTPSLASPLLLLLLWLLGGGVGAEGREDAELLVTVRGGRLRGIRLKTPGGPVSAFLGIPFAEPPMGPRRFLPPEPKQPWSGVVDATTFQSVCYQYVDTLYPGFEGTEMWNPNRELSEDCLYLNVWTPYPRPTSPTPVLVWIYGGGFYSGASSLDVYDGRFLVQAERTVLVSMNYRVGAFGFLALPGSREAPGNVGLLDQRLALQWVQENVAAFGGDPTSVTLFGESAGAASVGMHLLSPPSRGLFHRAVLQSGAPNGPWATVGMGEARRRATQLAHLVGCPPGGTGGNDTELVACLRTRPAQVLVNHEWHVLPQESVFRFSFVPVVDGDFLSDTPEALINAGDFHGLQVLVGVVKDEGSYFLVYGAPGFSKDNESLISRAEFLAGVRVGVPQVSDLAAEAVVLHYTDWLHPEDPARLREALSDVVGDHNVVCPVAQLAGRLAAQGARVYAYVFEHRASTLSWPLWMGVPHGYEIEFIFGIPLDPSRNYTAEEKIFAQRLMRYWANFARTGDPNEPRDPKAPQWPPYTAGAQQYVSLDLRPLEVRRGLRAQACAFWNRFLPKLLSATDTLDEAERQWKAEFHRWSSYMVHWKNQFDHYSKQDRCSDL
T1 sequence (P06276 whole entry): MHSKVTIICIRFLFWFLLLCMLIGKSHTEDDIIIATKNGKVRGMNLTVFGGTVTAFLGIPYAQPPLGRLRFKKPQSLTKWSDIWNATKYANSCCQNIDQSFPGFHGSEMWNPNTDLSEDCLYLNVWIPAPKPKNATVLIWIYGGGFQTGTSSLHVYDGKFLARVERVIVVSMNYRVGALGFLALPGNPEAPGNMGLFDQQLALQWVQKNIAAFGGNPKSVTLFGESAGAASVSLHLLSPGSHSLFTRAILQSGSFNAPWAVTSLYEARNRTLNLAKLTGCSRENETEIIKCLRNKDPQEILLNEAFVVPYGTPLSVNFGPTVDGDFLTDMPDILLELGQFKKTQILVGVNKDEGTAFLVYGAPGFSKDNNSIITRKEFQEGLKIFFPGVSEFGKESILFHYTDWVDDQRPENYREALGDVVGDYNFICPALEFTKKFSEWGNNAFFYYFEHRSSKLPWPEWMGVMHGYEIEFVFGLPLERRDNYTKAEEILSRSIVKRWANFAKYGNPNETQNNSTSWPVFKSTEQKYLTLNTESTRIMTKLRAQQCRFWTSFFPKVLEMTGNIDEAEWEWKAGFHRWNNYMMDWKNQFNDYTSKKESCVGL
Cholinesterase (Equus caballus), sequence (P81908 whole entry, the tested form may be a part): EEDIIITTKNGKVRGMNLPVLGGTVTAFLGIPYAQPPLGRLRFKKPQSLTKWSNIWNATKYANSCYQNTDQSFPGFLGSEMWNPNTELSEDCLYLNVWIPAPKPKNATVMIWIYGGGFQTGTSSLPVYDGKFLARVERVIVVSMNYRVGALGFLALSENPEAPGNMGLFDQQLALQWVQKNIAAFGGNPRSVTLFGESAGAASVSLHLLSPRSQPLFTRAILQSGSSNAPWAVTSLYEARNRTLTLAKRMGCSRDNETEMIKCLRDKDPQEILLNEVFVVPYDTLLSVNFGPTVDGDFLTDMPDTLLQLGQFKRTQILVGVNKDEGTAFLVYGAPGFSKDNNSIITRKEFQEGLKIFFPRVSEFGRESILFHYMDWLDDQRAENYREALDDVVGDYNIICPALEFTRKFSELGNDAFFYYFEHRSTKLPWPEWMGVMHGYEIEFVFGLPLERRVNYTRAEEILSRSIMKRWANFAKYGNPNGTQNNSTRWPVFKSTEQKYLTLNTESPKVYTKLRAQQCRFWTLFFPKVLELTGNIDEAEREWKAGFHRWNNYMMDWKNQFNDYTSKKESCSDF

With `COc1cc2ncnc(N3CCN(C(C)=O)CC3)c2cc1OC`, the IC50 was over 10000 nM against Cholinesterase [1], 3660 nM at Beta-secretase 1 [2] and 1190 nM against Acetylcholinesterase [3].
As to `Cn1c(N/N=C/c2cccc(Cl)c2Cl)nc2ccccc2c1=O`, the IC50 in data set [4] is over 100000 nM.
Take `COc1cc2ncnc(N3CCN(Cc4ccc(Cl)cc4)CC3)c2cc1OC`: the IC50 against Cholinesterase [1] is over 10000 nM; against Beta-secretase 1 [2], 1650 nM; against Acetylcholinesterase [3], 921 nM.
`COc1cc2ncnc(N3CCN(C(c4ccccc4)c4ccccc4)CC3)c2cc1OC`: the results for the IC50 at Cholinesterase [1], against Beta-secretase 1 [2] and against Acetylcholinesterase [3] were over 10000 nM, 662 nM and 436 nM, respectively. The apparent permeability (Papp) at 18 h, 25 ug/ml in the data set “in vitro” worked out at 6.28 ×10⁻⁶ cm/s.
Regarding `Cc1ccccc1-n1c(SCC(=O)N/N=C/c2ccc(Br)cc2)nc2ccccc2c1=O`, in [5], the inhibition was 6.8%.
As for `COc1cc2ncnc(N3CCN(Cc4ccc(F)cc4)CC3)c2cc1OC`, the IC50 is over 10000 nM against Cholinesterase [1], 2920 nM against Beta-secretase 1 [2] and 932 nM on Acetylcholinesterase [3].
Compound `COc1cc2c(Nc3ccc(C(=O)/C=C/c4nc(C)c(C)nc4C)cc3)ncnc2c(OC)c1OC` showed an inhibition in data set [6] of 26.7%. In addition, the Activity in the data set on PC-12 came to 77%.
Take `COc1cc2ncnc(N3CCN(c4ccc(C)cc4)CC3)c2cc1OC`: the IC50 was over 10000 nM at Cholinesterase [1], 1880 nM against Beta-secretase 1 [2] and 1170 nM on Acetylcholinesterase [3].
Turning to `COc1cc(/C=C/C(=O)CC(=O)/C=C/c2ccc(O)c(OC)c2)ccc1O`, the inhibition result in [7] and in data set [8] was “Active” in each case.
Turning to `COc1cc2ncnc(N3CCN(c4ccccc4[N+](=O)[O-])CC3)c2cc1OC`, the 50% inhibitory concentration (IC50) was over 10000 nM against Cholinesterase [1], 1820 nM at Beta-secretase 1 [2] and 914 nM against Acetylcholinesterase [3].
On to `COc1cc2ncnc(N3CCN(c4ccccc4)CC3)c2cc1OC`, for which the IC50 at Cholinesterase [1] was over 10000 nM; on Beta-secretase 1 [2] it was 1310 nM; at Acetylcholinesterase [3], 1010 nM.
`O=C(CCN1CCCCC1)Nc1ccc2nc(-c3cc4ccccc4[nH]3)[nH]c(=O)c2c1` registered an IC50 against Acetylcholinesterase [9] of 21 nM.
At Beta-secretase 1 [10], `FC(F)(F)c1ccc(-c2nnc(NC3CCN(Cc4ccccc4)CC3)o2)cc1` returned an IC50 of 146 nM.
For the compound `COc1cc2ncnc(N3CCN(c4ccc(F)cc4)CC3)c2cc1OC`, the 50% inhibitory concentration (IC50) against Cholinesterase [1] is over 10000 nM; on Beta-secretase 1 [2], 1470 nM; against Acetylcholinesterase [3] it was 1040 nM.
For the compound `c1ccc(CN2CCN(c3nc(-c4ccccc4)nc4ccccc34)CC2)cc1`, the 50% inhibitory concentration (IC50) against Beta-secretase 1 [11] is 254000 nM; against Acetylcholinesterase [12], 191 nM; on Cholinesterase [14], over 10000 nM. Moreover, the concentration at 96 h in data set [13] came out at 15 ng/mL; in data set [15], 54 ng/mL.
Regarding `COc1cc2ncnc(N3CCN(c4ccc([N+](=O)[O-])cc4)CC3)c2cc1OC`, the IC50 at Cholinesterase [1] is over 10000 nM; against Beta-secretase 1 [2], 729 nM; on Acetylcholinesterase [3], 481 nM. Moreover, the Papp at 18 h, 25 ug/ml in the data set “in vitro” was determined as 4.81 ×10⁻⁶ cm/s.
Consider `C#CCN(C)c1nc(NC2CCCCC2)c2ccc(Cl)cc2n1`, for which the inhibition against Cholinesterase [16] and at Acetylcholinesterase [17] was 3% throughout.
As for `CC1c2cc(Oc3ccccc3)ccc2N=C(N)N1CCCC(=O)N(Cc1ccnn1C)C1CCCCC1` (centres undefined), the concentration for half-maximal inhibition (IC50) in data set [18] stood at 11800 nM; on Beta-secretase 1 [19] it was 140 nM; on Beta-secretase 1 [20] it was 380 nM.
With `COc1cc2ncnc(N3CCN(c4ccccn4)CC3)c2cc1OC`, the IC50 was over 10000 nM against Cholinesterase [1], 1560 nM against Beta-secretase 1 [2] and 1150 nM against Acetylcholinesterase [3].
As for `COc1cc2ncnc(N3CCN(C)CC3)c2cc1OC`, the IC50 is over 10000 nM against Cholinesterase [1], 3280 nM against Beta-secretase 1 [2] and 1270 nM at Acetylcholinesterase [3].
For `COc1cc2ncnc(N3CCN(c4ccc(Br)cc4)CC3)c2cc1OC`, the half-inhibitory concentration (IC50) on Cholinesterase [1] was over 10000 nM; against Beta-secretase 1 [2], 1710 nM; against Acetylcholinesterase [3], 973 nM.
As to `COc1cc2ncnc(N3CCN(Cc4ccc(C)cc4)CC3)c2cc1OC`, the values for the concentration for half-maximal inhibition (IC50) against Cholinesterase [1], against Beta-secretase 1 [2] and against Acetylcholinesterase [3] were over 10000 nM, 1430 nM and 1020 nM, respectively.

Broadly, the IC50 is the concentration at which inhibition is half-maximal. A word on the Papp: it is the rate of passage across a membrane or cell layer, normalised by area and donor concentration. Read a low Papp as poor permeation. Usually inhibition stands for the relative decrease from the control value, in per cent.
